In patent US20220023278A1, “ANTI-AGING METHOD COMPRISING APPLYING JWA GENE” (Simcere Pharmaceutical Co., Ltd., priority 2019, published 2022):

Key:
[1] = test system: JWA gene; test: JWA reporter gene assay (dual-luciferase) in HBE cells; assay type: cell-based, human; conditions: 24 hours treatment
From the text: 2012 bp upstream of the JWA transcription start site (referred to “JWA promoter sequence” hereafter) was amplified by RT-PCR according to the human-derived JWA promoter sequence (FIG. 35), and inserted into a pGL3-Neo vector by using KpnI and NheI restriction enzyme sites, thereby yielding a recombinant vector (FIG. 36) containing the JWA promoter sequence. The recombinant vector was transferred into E. coli. (DH5a). Positive clones were sequenced to verify accuracy, thereby obtaining a neomycin-resistant reporter plasmid containing the JWA gene promoter. The plasmid and corresponding strains were stored at −70° C. for use.
Human bronchial epithelial (HBE) cells were cultured at a density of 3000 cells per well in a 384-well plate and allowed to adhere together. […]
After incubation, the 384-well plate was taken out, allowing the reagents and cells to equilibrate to room temperature of 18-22° C. […] The luciferase activity was analyzed by using a Dual-Luciferase Reporter Assay kit (Promega) and measured by a chemiluminescence analyzer (3010 C chemiluminescence analyzer). […]

[2] = test system: JWA protein; test: Western blot of JWA protein expression in HBE cells; assay type: cell-based, human; conditions: 24 hours and 48 hours, 1, 10, and 100 μmol/L
Protocol: The HBE cells in the logarithmic growth phase were digested, plated at a density of 5×10^5/cell onto a 60 mm cell culture dish, and incubated in different doses of the compound JAC-4 for 24 hours or 48 hours, respectively. The cells were then treated with 0.18 mL of radio immunoprecipitation assay (RIPA, containing 0.5% PMSF) cell lysate for protein extraction, and centrifuged at 12,000×g for 15 minutes. The supernatant was collected and the protein concentration was measured. The proteins were heated and separated by electrophoresis through 12.5% polyacrylamide gel. 70 μg of the heated proteins was loaded into each well and separated by electrophoresis at 60 V for 30 minutes and 90 V for 1-1.5 hours. The proteins were then transferred from the gel to a PVDF membrane using a mini-genie transfer apparatus. The PVDF membrane was blocked with 5% skim milk, incubated at room temperature for 1-2 hours, and washed with TBST (containing 0.1% Tween 20). The washing step was repeated 3 times for 5 minutes each time. The blocked membrane was incubated overnight with primary antibody at 4° C., and then washed with TBS (containing 0.1% Tween 20). The washing step was repeated 3 times for 5 minutes each time. The blocked membrane was incubated at room temperature for 1-2 hours with secondary antibody, and then washed with TBST (containing 0.1% Tween 20). […]

[3] = HPLC analysis of compound in processed, Co60-sterilized test feed; assay type: physicochemical; conditions: pelleted feed, Co60 irradiation
From the text: The compound JAC-4 (purity>99%) was mixed with an equal amount of standard mouse feed. Specifically, 1 g of compound JAC-4 was thoroughly mixed with 1 g of basic feed materials; 2 g of the mixture was thoroughly mixed with 2 g of basic feed materials; 4 g of the mixture was thoroughly mixed with 4 g of basic feed materials, and so on, thereby obtaining two test feeds respectively containing 1 g/kg and 2 g/kg of the compound JAC-4. According to the standard operating procedures for feed, the test feeds were processed into pellets, vacuum packaged, and sterilized by a Co60 source irradiation. The feed processing was entrusted to a professional company. To verify that the compound JAC-4 was evenly distributed in the mixed feeds and not damaged in the structure during processing, the sterilized feeds were randomly sampled and fully extracted with organic solvents. The content of the compound JAC-4 was then measured by High Performance Liquid Chromatography and it was confirmed that the compound JAC-4 was not damaged and the content thereof met the requirements (FIGS. 38-40).

[4] = test system: 12-month-old mice; test: Feeding 12-month-old mice with test feed containing 1 g/kg JAC-4; assay type: in vivo
Protocol: 12-month-old mice were housed in specific pathogen free (SPF) conditions at an ambient temperature of 22±2° C. and a relative humidity of 40%-60%, in day/night cycles of 12 h/12 h simulated by lighting. Mice were fed with sterile acidified water, common feeds (without compound JAC-4) or test feeds (with compound JAC-4).
In general, the daily feed consumption of each mouse is about 10% of its body weight. Therefore, when the mice consume 1 g/kg of JAC-4 experimental feed, it is equivalent to the daily intake of 100 mg/kg of JAC-4. The mice were weighed every two weeks from the start of feeding and scored on the aging appearance every two weeks from the sixth week. The higher the score, the more obvious the aging appearance. The mice were photographed monthly and changes in appearance were recorded. In all the experiments attention was paid to ethical guidelines for the investigation of experimental pain in conscious animals.

[5] = test system: naturally aging mice (24 months old); test: Feeding naturally aging 24-month-old mice with test feed containing 2 g/kg JAC-4; assay type: in vivo; conditions: test feed 2 g/kg, 10 weeks
Protocol: Feeding 24-month-old mice with the test feed containing 2 g/kg of the compound JAC-4 (equivalent to 200 mg JAC-4/kg body weight).
Mice were housed in the same conditions as Example 12. After feeding for 10 weeks, the mice were anesthetized. The whole blood was collected, allowed to stand for 30 min at room temperature, and centrifuged at 3000 rpm for 15 min. The supernatant, i.e., serum, was collected and analyzed by Hitachi 7100 automatic biochemical analyzer. Liver, spleen and kidney tissues of the mice were isolated on ice, fixed with 4% paraformaldehyde, or frozen at −80° C. The fixed tissues were processed into a paraffin section or frozen section with a thickness of 5 μm, stained with HE to visualize the morphological and pathological changes in the liver, spleen and kidney. The liver section was stained with oil red O for fat deposition and stained with periodic acid-Schiff (PAS) for glycogen. Total protein was extracted from the liver and spleen frozen at −80° C., and cell membrane proteins were extracted from the liver frozen at −80° C. Western blot was performed to detect the expression of JWA protein in liver and spleen tissues, the expression of p-AKT, AKT, p-GSK3β and GSK3β proteins in liver tissues, and the expression of glucose transporter (Glut 2) in cell membrane proteins of liver tissues. A biochemical kit (purchased from Nanjing Jiancheng Bioengineering Institute, Nanjing, China) was used to detect the activities of Superoxide dismutase (SOD), as well as the main rate-limiting enzymes of glucose and lipid metabolism in liver tissues. In all the experiments attention was paid to ethical guidelines for the investigation of experimental pain in conscious animals.

[6] = test feed 1 g/kg vs common feed

## c1ccc(CSc2nnc(C3COc4ccccc4O3)o2)nc1 (centres unmarked) [JAC-4]
[1]
  activation of JWA gene expression (luciferase reporter): sharp dose-effect relationship
[2]
  expression level of JWA protein: enhanced
[3]
  integrity of compound in feed after processing and sterilization: not damaged
[4]; 22nd week, test feed 1 g/kg (100 mg/kg daily) vs common feed
  body weight: no statistical difference
[4]; [6]
  hair loss: significant decrease
  score of aging appearance: significant decrease
[5]
  SOD in the liver: increase
  SOD in the serum: increase
  glycogen synthase in the liver: increased
  rate-limiting enzyme related to glucose decomposition in the liver: increased
  serum glucose: significantly reduced
  serum triglycerides: significantly reduced
[5]; HE staining
  age-related inflammatory cell infiltration around the central vein of the liver: significantly reduced
  morphology of liver, kidney and spleen: did not produce observable abnormal changes
[5]; PAS staining
  glycogen synthesis in the liver: increased
[5]; Western blot
  AKT phosphorylation in liver: activated
  GSK3β in liver: inhibited
  Glut 2 expression in liver cell membranes: increased
  expression of JWA protein in liver tissue: increased significantly
  expression of JWA protein in spleen tissue: increased significantly
